Experimental data published in article PMC11833248, “Evolutionary and Functional Analysis of Monoamine Oxidase F: A Novel Member of the Monoamine Oxidase Gene Family” (Genome Biology and Evolution, 2025).
Like-named read-outs stand apart in the source and are kept apart here.

Experiments:
IPT-MAO A/B [1] = tested on: T1, IPT-MAO A/B; test: HRP-coupled spectrophotometric assay of H2O2, […] nm; assay type: biochemical, Megalops cyprinoides; settings: 25 °C, 50 mM Hepes/NaOH pH 7.5, 0.5% v/v reduced Triton X-100; read-out: IPT-MAO A/B / K M / Human MAOB
T1 construct: full length 522 residues (borders given for the mammalian construct); N-terminal 6xHis; Pichia pastoris KM71; detergent-solubilized, FOS-choline-12

IPT-MAO A/B [2] = settings: read-out: IPT-MAO A/B / K M / Human MAOB; 25 °C, 50 mM Hepes/NaOH pH 7.5, 0.5% v/v reduced Triton X-100

Km (IPT-MAO A/B [1]) [µM]	Km (IPT-MAO A/B [2]) [µM]	Compound
50 ± 10		NCc1ccccc1 [Benzylamine]
	300 ± 30	NCCc1ccc(O)c(O)c1 [Dopamine]
30 ± 4		NCCC(=O)c1ccccc1N [Kynuramine]
	100 ± 10	NCCc1c[nH]c2ccc(O)cc12 [Serotonin]
200 ± 40		NCCc1ccc(O)cc1 [Tyramine]

Compound	Km (IPT-MAO A/B [1]) [µM]	Km (IPT-MAO A/B [2]) [µM]
NCCc1ccccc1 [Phenethylamine]	70 ± 10	
